According to PMC12027554, “Inhibition of ABCG2 by SCO-101 Enhances Chemotherapy Efficacy in Cancer” (International Journal of Molecular Sciences, 2025):

What was measured:
[1] = tested on: HT29SN-38 cells; test: Colony formation assay; format: cell-based, human; conditions: 7 days
Experimental: Cells were trypsinized and counted, and 400 cells/well were seeded in 24-well plates. Drug treatments were performed 24 h after seeding for a total duration of 6 (LoVo) or 7 (HT29) days. Next, media were removed, and cells were washed with PBS and stained with 250 μL Crystal Violet solution for 10 min. Crystal Violet was then removed, plates rinsed with tap water, images captured, and colonies counted using the ImageJ software (version 1.54p). Survival fraction and plating efficiency (PE) were calculated as follows: Survival Fraction=number of colonies/number of cells plated ∗ PE PE=number of colonies formed in control/number of cells seeded

[2] = biological target: other members of the UGT family; test: Inhibition of glucuronidation activity of other UGT family enzymes; format: biochemical; conditions: Figure S3F
[3] = tested on: HT29PAR cells; test: Cellular dye efflux assay (Hoechst 33342), parental cells; format: cell-based, human; conditions: SCO-101 20 µM, Ko-143 1 µM
Experimental: Twenty-four hours before the experiments, cells were seeded into 96-well Nunclon^TM plates at a density of 6000 (HT29), 7000 (PANC-1) or 8000 (LoVo) cells/well. The following day, cells were treated in triplicate with the relevant drugs at the indicated concentrations for 1 h. Next, 5 μg/mL Hoechst 33342 was added to the wells, and plates incubated at 37 °C for 30 min^−1 h. Cells were washed with cold PBS, treatments re-added and plates re-incubated at 37 °C for 30 min to 1 h. Plates were analyzed using a Celigo® (Nexcelom Bioscience, Lawrence, MA, USA) imaging cytometer. Data are expressed as percentages of fluorescence intensity, calculated through the following formula: % fluorescence intensity=Mean fluorescence intensity of sample/Mean fluorescence intensity of parental control×100
Fluorescent images were captured with an Olympus® IX71/TH4-200 microscope equipped with an Olympus® DP72 camera (Shinjuku, Tokyo, Japan), and cells were seeded at a 1.5 × 10^5 cells/well density and treated as described above.

[4] = biological target: T1, ABCG2 (Homo sapiens, UniProt Q9UNQ0); test: Efflux transporter inhibition, vesicular uptake into inside-out membrane vesicles (ABCG2); format: biochemical; parameters: purchased SOLVO biotechnology, Budapest, Hungary
T1 sequence (Q9UNQ0 1-655): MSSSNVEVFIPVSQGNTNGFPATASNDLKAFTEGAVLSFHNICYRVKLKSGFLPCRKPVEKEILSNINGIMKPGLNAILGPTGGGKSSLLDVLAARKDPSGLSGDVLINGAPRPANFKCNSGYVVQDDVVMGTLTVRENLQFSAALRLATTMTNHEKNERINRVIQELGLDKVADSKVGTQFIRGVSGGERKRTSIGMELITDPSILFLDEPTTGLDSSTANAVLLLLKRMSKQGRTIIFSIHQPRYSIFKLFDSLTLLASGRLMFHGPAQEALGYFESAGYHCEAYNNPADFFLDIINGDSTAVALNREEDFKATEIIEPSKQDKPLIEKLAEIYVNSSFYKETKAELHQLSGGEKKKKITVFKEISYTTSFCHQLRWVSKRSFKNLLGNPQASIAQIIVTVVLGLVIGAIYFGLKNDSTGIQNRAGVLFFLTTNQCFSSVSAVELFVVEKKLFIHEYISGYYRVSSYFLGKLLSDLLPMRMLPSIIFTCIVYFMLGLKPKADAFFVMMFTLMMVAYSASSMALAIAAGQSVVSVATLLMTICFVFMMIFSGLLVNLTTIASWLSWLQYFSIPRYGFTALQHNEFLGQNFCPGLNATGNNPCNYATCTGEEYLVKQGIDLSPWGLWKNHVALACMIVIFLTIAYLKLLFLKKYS
Experimental: Efflux transporter inhibition was evaluated by measuring vesicular uptake into inside-out membrane vesicles (SOLVO biotechnology, Budapest, Hungary) expressing a single human ABC transporter (0.67 mg/mL ABCB1; 0.67 mg/mL ABCC2; 0.33 mg/mL ABCG2 membrane protein) of a probe substrate (1 μM N-methyl-quinidine for ABCB1; 100 μM 5(6)-carboxy-2′,7′-dichlorofluorescein for ABCC2; 1 μM Eestrone-3-sulfate for ABCG2) in the presence of SCO-101 with and without ATP (4 mM) in 96-well plate format. Control solvent and control inhibitors (4–60 μM verapamil for […]; 1–15 μM sulfasalazine for ABCG2; 5.5–150 μM benzbromarone for ABCC2) were incubated in parallel. Vesicular uptake was conducted at 37 °C in incubation buffer (10 mM Tris-HCl, pH 7.4, 10 mM MgCl2, 250 mM sucrose) and terminated after 1 min (ABCB1 and ABCG2) or 5 min (ABCC2) by adding ice-cold washing buffer (10 mM Tris-HCl, pH 7.4, 100 mM NaCl, 250 mM sucrose). […] Probe quantification was conducted using LC-MS/MS peak areas (solvent control with ATP − AMP = 100%). […] The remaining transporter activity % was calculated according to the formula below, and fitting was performed using GraphPad Prism: A%=AATP,sample−AAMP,sample/AATP,solvent−AAMP,solvent

**Q.** What does the source list for `O=C(Nc1cc(C(F)(F)F)cc(C(F)(F)F)c1)Nc1ccc(Br)cc1-c1nnn[nH]1` [SCO-101, N-[4-Bromo-2-(1H-1,2,3,4-tetrazol-5-yl)phenyl]-N′-[3,5-bis(trifluoromethyl)phenyl]urea]?
**A.** colony formation ability (survival fraction) ([1]; 10 µM SCO-101 alone): did not affect; colony formation ability, SCO-101 in combination with SN-38 ([1]; SCO-101 0–20 µM + SN-38 0.01 μM, vs SCO-101 alone): significant reduction; IC50 for other members of the UGT family compared with UGT1A1 [2]: higher IC50 values; H33342 dye accumulation [3]: No change; IC50 ([4]; ABCG2 inside-out vesicles, 1 μM estrone-3-sulfate, SCO-101 0.001–300 µM, read-out: IC50, ATP-dependent vesicular uptake of probe substrate (remaining ABCG2 activity)): 160 nM; IC50 for MDR1/ABCB1 and MRP2/ABCC2 relative to ABCG2 ([4]; selectivity for ABCG2): > 100 fold
